From US7968733B2, “Pyrrolidine analogue for preventing neurogenic pain and method for production thereof” (priority 2006, dated 2011)

Key:
[1] = system: acromelic acid-induced allodynia; assay: Evaluation of allodynia-inhibitory activity (intrathecal co-administration with acromelic acid); assay type: in vivo, ddY-mouse; details: for allodynia-inhibitory activity: intrathecal, 5 μl solution with 1×10^−15 gram of acromelic acid plus pyrrolidine derivative, ddY-mouse male, allodynia scored 0 to 2 every 5 minutes for 50 minutes, percent of control, FIGS. 1-3; for dose suppressing allodynia induction with equal potency, relative to the compounds of Comparative Examples 5 and 6: fraction of the doses of Comparative Examples 5 and 6, intrathecal with acromelic acid, ddY-mouse, FIG. 3
Description: In the evaluation, according to the method of Hylden & Wilcox (Hylden, J. L. K. and Wilcox, G. L., Intrathecal morphine in mice: a new technique, Eur. J. Pharmacol, 67 (1980) 313-316.), 5 μl of a solution containing 1×10^−15 gram of acromelic acid and a different dose of pyrrolidine derivative was administrated to ddY-mouse (male, weight 22±2 g) under an unanesthetized condition. One experimental group consisted of 6 mice, and a solution containing 1×10^−15 gram of acromelic acid (5 μl ) was administrated in control groups. After the compound was intrathecally administered, allodynia was assessed once every 5 minutes for 50 minutes by scoring the response in rank order from 0 to 2, and expressed as a percent of the values in control groups, similarly to the method of Yaksh & Harty et al. (Yaksh, T. L. and Harty, G. J., Pharmacology of the allodynia in rats evoked by high dose intrathecal morphine, J. Pharmacol. Exp. Ther., 244 (1988) 501-507.). Allodynic response was ranked as follows: 0, no response; 1, mild squeaking with attempts to move away from the stroking probe; 2, vigorous squeaking evoked by the stroking probe, biting at the probe or strong efforts to escape.

allodynia = details: intrathecal administration in mice; Non-patent documents 1 and 4; cited from earlier work

Compound	allodynia-inhibitory activity [1]	dose suppressing allodynia induction with equal potency, relative to the compounds of Comparative Examples 5 and 6 [1]	allodynia-inducing activity (allodynia)
O=C(O)C[C@@H]1[C@@H](C(=O)O)NC[C@H]1Oc1ccc(C(=O)O)cc1 [Example 1, (2S,3R,4S)-3-carboxymethyl-4-(4-carboxyphenoxy)-pyrrolidine-2-carboxylic acid]	strong allodynia-inhibitory activity		
O=C(O)C[C@@H]1[C@@H](C(=O)O)NC[C@H]1Oc1ccccc1C(=O)O [Example 5, (2S,3R,4S)-3-(carboxymethyl)-4-(2-carboxyphenoxy)-pyrrolidine-2-carboxylate]	strong allodynia-inhibitory activity		
Cc1ccc(O[C@@H]2CN[C@H](C(=O)O)[C@H]2CC(=O)O)c(C(=O)O)c1 [Example 8, (2S,3R,4S)-3-carboxymethyl-4-(2-carboxy-4-methyl-phenoxy)pyrrolidine-2-carboxylate]	strong allodynia-inhibitory activity	approximately one-hundredth	
O=C(O)c1ccc(O[C@@H]2CN[C@H](C(=O)O)C2)cc1 [Example 9, (2S,4S)-4-(4-carboxyphenoxy)pyrrolidine-2-carboxylate]	strong allodynia-inhibitory activity		
COc1ccc(S[C@H]2CN[C@H](C(=O)O)[C@H]2CC(=O)O)cc1 [Example 13, (2S,3R,4R)-3-(carboxymethyl)-4-(4-methoxyphenylthio)-pyrrolidine-2-carboxylate]	strong allodynia-inhibitory activity		
Cc1ccc(S[C@H]2CN[C@H](C(=O)O)[C@H]2CC(=O)O)cc1 [Example 14, (2S,3R,4R)-3-(carboxymethyl)-4-(4-methylphenylthio)-pyrrolidine-2-carboxylate]	strong allodynia-inhibitory activity	approximately one-hundredth	
O=C(O)C[C@H]1[C@@H](Sc2ccccc2)CN[C@@H]1C(=O)O [Example 18, (2S,3R,4R)-3-carboxy-methyl-4-phenylthiopyrrolidine-2-carboxylate]	strong allodynia-inhibitory activity		
Cc1ccc(S[C@H]2CN[C@H](C(=O)O)C2)cc1 [Example 19, (2S,4R)-4-(4-methylphenylthio)pyrrolidine-2-carboxylate]	strong allodynia-inhibitory activity	approximately one-hundredth	
[N-]=[N+]=Nc1ccc(O[C@H]2CN[C@H](C(=O)O)[C@H]2CC(=O)O)c(I)c1 [proline analogue (a)]			the same degree of allodynia-inducing activity as that of acromelic acids
acromelic acids			induce severe allodynia
